Results on 1 sequence are retold here after patent US20070178532A1 (priority 2003, published 2007).

In assay [1] the test system is CD8+ T cells in PBMCs. Kind of assay: HLA-GFP acquisition by CD8+ T cells in PBMCs mixed with peptide-pulsed HmyA2GFP cells (FACS). The settings on record: PBMC of HAM/TSP patient #5.
Assay [2] deals with PBMCs. Kind of assay: peptide loaded HLA-A*201 tetramer analysis of PBMCs (FACS). The following applies: PBMC of HAM/TSP patient #5.
The test system of assay [3] is tetramer-positive T cells from PBMC of HAM/TSP patients. The assay is described as follows: CD27 and CD45RA expression in HLA-GFP-acquiring tetramer-positive T cells after peptide presentation by HmyA2GFP cells. Type of assay: cell-based, human.
Assay [4] shares this test system. The assay is described as follows: intracellular perforin staining of tetramer-positive T cells (FACS). Type of assay: cell-based, human.
Procedure: The above-described phenotypically defined T cell populations were further characterized with respect to perforin expression and cytolytic activity. For intracellular perforin staining, cells were fixed and permeabilization with Cytofix/CytoPerm kit (BD Pharmingen), and stained with monoclonal antibody specific for perforin (BD Pharmingen). The cells were subjected to further FACS analysis and the resulting data was analyzed with Cellquest software (Becton Dickinson) to obtain the mean fluorescence intensity (MFI) for the cell populations.
The mark [5] stands for this setting: CMV tetramer-positive cells, After contact with HmyA2GFP cells (1 hour).
The mark [6] stands for this setting: HLA-GFP-acquiring tetramer-positive cells after stimulation with peptide-pulsed HmyA2GFP cells.

Consider NLVPMVATV [CMV pp65], for which the “frequency of peptide-specific T cells in the PBMC population by the inventive method” value in assay [1] is reported as 6.34%. The “peptide-specific T cells in the PBMCs by tetramer” value in assay [2] amounted to 6.57%. In assay [3] (setting [5]), the “% CD27+ CD4SRA−” value was 2.51%, the “% CD27+ CD45RA+” value came to 3.05%, the “% CD27− CD45RA+” value is reported as 42.625% and the “% CD27− CD45RA−” value is 51.813%. In assay [3] (setting [6]), the “change of CD27+CD45RA− (memory) subset” value is recorded as “concomitant decrease”, the “change of CD27-CD45+ (effector) subset” value is listed as “no significant change” and the “change of CD27-CD45RA− (effector/memory) subset” value was “significant increase”. Also, in assay [4] (HLA acquiring CMV tetramer-positive cells), the “Perforin Expression Levels (in MFI)” value was found to be 9.543 MFI. For the same sequence, in assay [4] (after stimulation with peptide-pulsed HmyA2GFP cells), the “change in the amount of perforin in virus-specific T cells after peptide stimulation” value is “significant decrease”.
